Experiments:
Assay type in all cases: in vivo
[1] = test system: Italian ryegrass (Lolium multiflorum); test: Test B preemergence, Italian ryegrass; settings: Preemergence, scale 0 to 100
Summary of the method: (§1)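 Visually scored percent control (0–100) after 13 to 15 days in a greenhouse, following preemergence application of compound formulated with surfactant in a non-phytotoxic solvent to seeds in loam soil/sand.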

[2] = test system: wheat (Triticum aestivum); test: Test B preemergence, wheat; settings: Preemergence, scale 0 to 100
Summary of the method: as §1

[3] = test system: pigweed (Amaranthus retroflexus); test: Test B preemergence, pigweed; settings: scale 0 to 100
Summary of the method: as §1

[4] = test system: johnsongrass (Sorghum halepense); test: Test B preemergence, johnsongrass; settings: scale 0 to 100
Summary of the method: as §1

[5] = test system: umbrella sedge (Cyperus difformis); test: Test B flooded paddy test, umbrella sedge; settings: Flood, scale 0 to 100
Summary of the method: (§2)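 Rice, umbrella sedge, ducksalad and barnyardgrass at 2-leaf stage; pots flooded to 3 cm, compounds applied into paddy water, depth held throughout. Greenhouse 13 to 15 days, then visual rating vs untreated controls on 0–100 scale (0 no effect, 100 complete control); dash means no test result.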

[6] = test system: goosegrass (Eleusine indica); test: Test B preemergence, goosegrass; settings: scale 0 to 100
Summary of the method: as §1

[7] = test system: pigweed (Amaranthus retroflexus); test: Test A preemergence, pigweed; settings: 0 to 100 scale (0 no effect, 100 complete control)
Summary of the method: (§3)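 Seeds sown in loam soil–sand blend; test chemicals in non-phytotoxic solvent mixture with surfactant applied preemergence as directed soil spray, or postemergence to plants 2–10 cm tall at one- to two-leaf stage. Greenhouse, ~10 days; visual injury rated against untreated controls, 0 (no effect) to 100 (complete control).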

[8] = test system: giant foxtail (Setaria faberi); test: Test A preemergence, giant foxtail; settings: 0 to 100 scale (0 no effect, 100 complete control)
Summary of the method: as §3

[9] = test system: cocklebur (Xanthium strumarium); test: Test B preemergence, cocklebur; settings: scale 0 to 100
Summary of the method: as §1

[10] = test system: giant foxtail (Setaria faberii); test: Test B preemergence, giant foxtail; settings: scale 0 to 100
Summary of the method: as §1

[11] = test system: morningglory (Ipomoea spp.); test: Test A preemergence, morningglory; settings: 0 to 100 scale (0 no effect, 100 complete control)
Summary of the method: as §3

[12] = test system: green foxtail (Setaria viridis); test: Test B preemergence, green foxtail; settings: scale 0 to 100
Summary of the method: as §1

[13] = test system: barnyardgrass (Echinochloa crus-galli); test: Test B flooded paddy test, barnyardgrass; settings: Flood
Summary of the method: as §2

[14] = test system: woolly cupgrass (Eriochloa villosa); test: Test B preemergence, woolly cupgrass; settings: scale 0 to 100
Summary of the method: as §1

[15] = test system: morningglory (Ipomoea spp.); test: Test A postemergence, morningglory; settings: 0 to 100 scale (0 no effect, 100 complete control)
Summary of the method: as §3

[16] = test system: ducksalad (Heteranthera limosa); test: Test B flooded paddy test, ducksalad; settings: Flood, scale 0 to 100
Summary of the method: as §2

wild oat (Avena fatua) = test: Test B preemergence, wild oat; settings: scale 0 to 100
Summary of the method: as §1

[17] = test system: bermudagrass (Cynodon dactylon); test: Test B preemergence, bermudagrass; settings: scale 0 to 100
Summary of the method: as §1

corn (Zea mays) = test: Test A postemergence, corn; settings: 0 to 100 scale (0 no effect, 100 complete control)
Summary of the method: as §3

CC1(C)CC(S(=O)(=O)Cc2c(C(F)(F)C(F)(F)F)nc3n(c2=O)CCC3)=NO1 [Compound 22]
Plant response rating, Ryegrass, Italian ([1]; 16 g ai/ha): 0 | Plant response rating, Ryegrass, Italian ([1]; 31 g ai/ha): 30 | Plant response rating, Ryegrass, Italian ([1]; 62 g ai/ha): 100 | Plant response rating, Ryegrass, Italian ([1]; 125 g ai/ha): 100 | Plant response rating, Wheat ([2]; 16 g ai/ha): 0 | Plant response rating, Wheat ([2]; 31 g ai/ha): 0 | Plant response rating, Wheat ([2]; 62 g ai/ha): 0 | Plant response rating, Wheat ([2]; 125 g ai/ha): 10 | Plant response rating, Pigweed ([3]; 31 g ai/ha): 0 | Plant response rating, Pigweed ([3]; 125 g ai/ha): 100 | Plant response rating, Johnsongrass ([4]; 16 g ai/ha): 0 | Plant response rating, Johnsongrass ([4]; 31 g ai/ha): 10 | Plant response rating, Johnsongrass ([4]; 62 g ai/ha): 65 | Plant response rating, Johnsongrass ([4]; 125 g ai/ha): 98 | Plant response rating, Sedge, Umbrella ([5]; 62 g ai/ha): 0 | Plant response rating, Sedge, Umbrella ([5]; 250 g ai/ha): 0 | Plant response rating, Goosegrass ([6]; 16 g ai/ha): 30 | Plant response rating, Goosegrass ([6]; 31 g ai/ha): 80 | Plant response rating, Goosegrass ([6]; 62 g ai/ha): 100 | Plant response rating, Goosegrass ([6]; 125 g ai/ha): 100 | Plant response rating, Pigweed ([7]; 125 g ai/ha): 10 | Plant response rating, Pigweed ([7]; 500 g ai/ha): 90 | Plant response rating, Foxtail, Giant ([8]; 125 g ai/ha): 90 | Plant response rating, Foxtail, Giant ([8]; 500 g ai/ha): 100 | Plant response rating, Cocklebur ([9]; 16 g ai/ha): 0 | Plant response rating, Cocklebur ([9]; 31 g ai/ha): 0 | Plant response rating, Cocklebur ([9]; 62 g ai/ha): 0 | Plant response rating, Cocklebur ([9]; 125 g ai/ha): 0 | Plant response rating, Foxtail, Giant ([10]; 16 g ai/ha): 50 | Plant response rating, Foxtail, Giant ([10]; 31 g ai/ha): 50 | Plant response rating, Foxtail, Giant ([10]; 62 g ai/ha): 90 | Plant response rating, Foxtail, Giant ([10]; 125 g ai/ha): 100 | Plant response rating, Morningglory ([11]; 125 g ai/ha): 50 | Plant response rating, Morningglory ([11]; 500 g ai/ha): 80 | Plant response rating, Foxtail, Green ([12]; 16 g ai/ha): 50 | Plant response rating, Foxtail, Green ([12]; 31 g ai/ha): 70 | Plant response rating, Foxtail, Green ([12]; 62 g ai/ha): 100 | Plant response rating, Foxtail, Green ([12]; 125 g ai/ha): 100 | Plant response rating, Barnyardgrass ([13]; 62 g ai/ha, scale 0 to 100): 0 | Plant response rating, Barnyardgrass ([13]; 250 g ai/ha, scale 0 to 100 (0 no effect, 100 complete control)): 0 | Plant response rating, Cupgrass, Woolly ([14]; 16 g ai/ha): 100 | Plant response rating, Cupgrass, Woolly ([14]; 31 g ai/ha): 100 | Plant response rating, Cupgrass, Woolly ([14]; 62 g ai/ha): 100 | Plant response rating, Cupgrass, Woolly ([14]; 125 g ai/ha): 100 | Plant response rating, Morningglory ([15]; 125 g ai/ha): 0 | Plant response rating, Morningglory ([15]; 500 g ai/ha): 50 | Plant response rating, Ducksalad ([16]; 62 g ai/ha): 0 | Plant response rating, Ducksalad ([16]; 250 g ai/ha): 0 | Plant response rating, Oat, Wild (wild oat (Avena fatua); 16 g ai/ha): 0 | Plant response rating, Oat, Wild (wild oat (Avena fatua); 31 g ai/ha): 0 | Plant response rating, Oat, Wild (wild oat (Avena fatua); 62 g ai/ha): 30 | Plant response rating, Oat, Wild (wild oat (Avena fatua); 125 g ai/ha): 40 | Plant response rating, Bermudagrass ([17]; 16 g ai/ha): 98 | Plant response rating, Bermudagrass ([17]; 31 g ai/ha): 100 | Plant response rating, Bermudagrass ([17]; 62 g ai/ha): 100 | Plant response rating, Bermudagrass ([17]; 125 g ai/ha): 100 | Plant response rating, Corn (corn (Zea mays); 125 g ai/ha): 0 | Plant response rating, Corn (corn (Zea mays); 500 g ai/ha): 0

Reference: patent US20100099561A1, “HETEROBICYCLIC ALKYLTHIO-BRIDGED ISOXAZOLINES” (E.I. DU PONT DE NEMOURS AND COMPANY, priority 2008, published 2010)
